Assay: Functional Dkk1-LRP5-TCF-Luciferase Assay in U2OS Cells (table columns: A=MAX FOLD Induction/DMSO CONTROL; B=fold induction @ 2.0 uM; C=fold induction @ 20.0 uM)
Assay type: cell-based, Human
Conditions: Homo sapiens, U2OS; for fold induction at 2 µM: 2.0 uM compound; for fold induction at 20 µM: 20.0 uM compound
Description: Biological Evaluation—Functional Dkk1-LRP5-TCF-Luciferase Assay in U2OS Cells
U2OS Human Bone derived cells (Osteosarcoma) are grown in McCoy's 5A Medium (Modified), with L-glutamine (GIBCO Cat No. 16600-082)+1% Pen-Strep+5% FBS) plated at 1×10^7 cells/T175 cm flask. The next day, the cells are co-transfected overnight with the following plasmids: (a) Test reporter (16×TCF-TK-FireFly-Luci), (b) Internal Control Reporter (TK-Renilla-Luci), (c) Wnt3a and (d) Dkk1. GIBCO's Lipofectamine 2000 and OptiMEM were used for the transfection. After a minimum of 4 hr of transfection at 37° C., the plasmid-transfected cells are trypsinized, counted, and suspended in freezing medium (95% FBS+5% DMSO). The reporter cells are frozen at 1×10^7/ml concentrations, aliquoted into 0.5 ml or 2.5 ml/tube and stored at −70° C.
The following day, test compounds are added under HTS setup by Plate Track into 384 well plates (white, TC treated, Falcon plate) such that the final concentration of the compounds in 20 μL/well cell will be 5 μg/ml (final concentration of DMSO=0.25% and final compound concentration=20 μM). Vials of frozen reporter cells are thawed by warming the vial in a 37° C. water bath for 60-120 seconds with some shaking until the cells formed a suspension. The thawed cells are transferred into a cold 50 ml (or larger) tube and mixed well by gentle pipetting. The appropriate amount of cold Phenol Red Free RPMI medium-1640 (GIBCO, Cat # 11835-030) with L-glutamine is added, both with ˜5% FBS (GIBCO-BRL, Cat. # 16000-044), so that 20 μl of the final cell suspension will contain ˜5,000 cells. The cell dilution is done such that the final concentration of FBS was ˜5%. Diluted cells (20 μl) are added into each well in a 384 well plate. The plate is incubated at 37° C. under 5% CO2 for ˜20 h. Bright-Glo substrate, 2.5 μl/well is added, and the Fire Fly Luciferase is measured using VLUX (60 second exposure) immediately after the substrate was added. Test compounds are dissolved in DMSO (100%) and added to specified wells. Raw luciferase signal data obtained as relative luminescence units (RLUs) for the test compounds are normalized to the signal of the mean of the sample reporter cell plate with DMSO.
Active compounds have TCF-luciferase ratios of 2.5 fold or greater over DMSO. All compounds show a signal increase of at least 10% compared to a signal with only DMSO added.
A=MAX FOLD Induction/DMSO CONTROL
B=TCF ACTIVITY/DMSO CONTROL Fold induction @ 2.0 uM C=TCF ACTIVITY/DMSO CONTROL Fold induction @ 20.0 uM

Row | SMILES | fold induction at 2 µM | fold induction at 20 µM
1 | CCCCc1nc2c(-c3ccc4ccccc4c3)ccnc2n1C1CCNCC1 [2-butyl-7-(2-naphthyl)-3-piperidin-4-yl-3H-imidazo[4,5-b]pyridine] | 1.19 | –
2 | CC(C)(C)c1ccc(-c2nc3cc(-c4ccc5ccccc5c4)cnc3n2C2CCNCC2)cc1 [2-(4-tert-butylphenyl)-6-(2-naphthyl)-3-piperidin-4-yl-3H-imidazo[4,5-b]pyridine] | 1.13 | –
3 | O=C(N1CCOCC1)N1CCC(n2c(=O)[nH]c3c(-c4ccc5ccccc5c4)ccnc32)CC1 [3-[1-(morpholin-4-ylcarbonyl)piperidin-4-yl]-7-(2-naphthyl)-1,3-dihydro-2H-imidazo[4,5-b]pyridin-2-one] | 1.33 | 1.02
4 | Cc1nc(-c2nc3c(-c4ccc5ccccc5c4)ccnc3n2C2CCNCC2)c[nH]1 [2-(2-methyl-1H-imidazol-4-yl)-7-(2-naphthyl)-3-piperidin-4-yl-3H-imidazo[4,5-b]pyridine] | 1.04 | 0.02
5 | c1ccc2cc(-c3cnc4c(c3)nc(-c3ccnc5ccccc35)n4C3CCNCC3)ccc2c1 [4-[6-(2-naphthyl)-3-piperidin-4-yl-3H-imidazo[4,5-b]pyridin-2-yl]quinoline] | 1.81 | –
6 | Fc1ccc(-c2nc3c(-c4ccc5ccccc5c4)ccnc3n2C2CCNCC2)c(C(F)(F)F)c1 [2-[4-fluoro-2-(trifluoromethyl)phenyl]-7-(2-naphthyl)-3-piperidin-4-yl-3H-imidazo[4,5-b]pyridine] | 1.11 | –
7 | CC(C)Cc1nc2c(-c3ccc4ccccc4c3)ccnc2n1C1CCNCC1 [2-isobutyl-7-(2-naphthyl)-3-piperidin-4-yl-3H-imidazo[4,5-b]pyridine] | 1.05 | –
8 | c1ccc2cc(-c3cnc4c(c3)nc(C3CCCCC3)n4C3CCNCC3)ccc2c1 [2-cyclohexyl-6-(2-naphthyl)-3-piperidin-4-yl-3H-imidazo[4,5-b]pyridine] | 1.24 | 0.01
9 | Cn1c(=O)n(C2CCN(S(C)(=O)=O)CC2)c2nccc(-c3ccc4ccccc4c3)c21 [1-methyl-3-[1-(methylsulfonyl)piperidin-4-yl]-7-(2-naphthyl)-1,3-dihydro-2H-imidazo[4,5-b]pyridin-2-one] | 1.52 | 0.97
10 | c1ccc(CN2CCC(n3cnc4c(-c5ccc6ccccc6c5)ccnc43)CC2)cc1 [3-(1-benzylpiperidin-4-yl)-7-(2-naphthyl)-3H-imidazo[4,5-b]pyridine] | 0.84 | 0.08
11 | Cc1nc2c(-c3ccc4ccccc4c3)ccnc2n1C1CNC1 [3-azetidin-3-yl-2-methyl-7-(2-naphthyl)-3H-imidazo[4,5-b]pyridine] | 1.16 | 0.76
12 | c1ccc(N(c2ccccc2)c2ccc(-c3nc4c(-c5ccc6ccccc6c5)ccnc4n3C3CCNCC3)cc2)cc1 [4-[7-(2-naphthyl)-3-piperidin-4-yl-3H-imidazo[4,5-b]pyridin-2-yl]-N,N-diphenylaniline] | 1.89 | –
13 | Cc1cc(-c2nc3c(-c4ccc5ccccc5c4)ccnc3n2C2CCNCC2)oc1C [2-(4,5-dimethyl-2-furyl)-7-(2-naphthyl)-3-piperidin-4-yl-3H-imidazo[4,5-b]pyridine] | 1.54 | –
14 | Cc1nc2c(-c3ccc4ccccc4c3)ccnc2n1[C@@H]1CCNC1 [2-methyl-7-(2-naphthyl)-3-[(3R)-pyrrolidin-3-yl]-3H-imidazo[4,5-b]pyridine] | 1.44 | 0.55
15 | c1coc(-c2nc3cc(-c4ccc5ccccc5c4)cnc3n2C2CCNCC2)c1 [2-(2-furyl)-6-(2-naphthyl)-3-piperidin-4-yl-3H-imidazo[4,5-b]pyridine] | 1.27 | 0.01
16 | COc1ncccc1-c1nc2c(-c3ccc4ccccc4c3)ccnc2n1C1CCNCC1 [2-(2-methoxypyridin-3-yl)-7-(2-naphthyl)-3-piperidin-4-yl-3H-imidazo[4,5-b]pyridine] | 1.5 | –
17 | c1ccc2cc(-c3cnc4c(c3)ncn4C3CCNCC3)ccc2c1 [6-(2-naphthyl)-3-piperidin-4-yl-3H-imidazo[4,5-b]pyridine] | 1.53 | –

Row | SMILES | fold induction at 2 µM | fold induction at 20 µM
18 | c1ccc2cc(-c3ccnc4c3nc(-c3ccsc3)n4C3CCNCC3)ccc2c1 [7-(2-naphthyl)-3-piperidin-4-yl-2-(3-thienyl)-3H-imidazo[4,5-b]pyridine] | 1.17 | 0.01
19 | Cc1ccc(-c2nc3c(-c4ccc5ccccc5c4)ccnc3n2C2CCNCC2)cc1 [2-(4-methylphenyl)-7-(2-naphthyl)-3-piperidin-4-yl-3H-imidazo[4,5-b]pyridine] | 1.9 | –
20 | FC(F)(F)c1ccc(C(F)(F)F)c(-c2nc3c(-c4ccc5ccccc5c4)ccnc3n2C2CCNCC2)c1 [2-[2,5-bis(trifluoromethyl)phenyl]-7-(2-naphthyl)-3-piperidin-4-yl-3H-imidazo[4,5-b]pyridine] | 1.45 | –
21 | c1ccc2cc(-c3ccnc4c3nc(-c3ccnc5ccccc35)n4C3CCNCC3)ccc2c1 [4-[7-(2-naphthyl)-3-piperidin-4-yl-3H-imidazo[4,5-b]pyridin-2-yl]quinoline] | 1.07 | –
22 | CN(C)S(=O)(=O)N1CCC(n2cnc3c(-c4ccc5ccccc5c4)ccnc32)CC1 [N,N-dimethyl-4-[7-(2-naphthyl)-3H-imidazo[4,5-b]pyridin-3-yl]piperidine-1-sulfonamide] | 1.19 | 1.46
23 | FC(F)(F)c1cccc(Oc2cccc(-c3nc4c(-c5ccc6ccccc6c5)ccnc4n3C3CCNCC3)c2)c1 [7-(2-naphthyl)-3-piperidin-4-yl-2-{3-[3-(trifluoromethyl)phenoxy]phenyl}-3H-imidazo[4,5-b]pyridine] | 1.29 | –
24 | c1ccc2cc(-c3cnc4c(c3)nc(-c3cc5ccccc5s3)n4C3CCNCC3)ccc2c1 [2-(1-benzothien-2-yl)-6-(2-naphthyl)-3-piperidin-4-yl-3H-imidazo[4,5-b]pyridine] | 0.92 | –
25 | Cc1cn(-c2ccccc2)c(Cl)c1-c1nc2c(-c3ccc4ccccc4c3)ccnc2n1C1CCNCC1 [2-(2-chloro-4-methyl-1-phenyl-1H-pyrrol-3-yl)-7-(2-naphthyl)-3-piperidin-4-yl-3H-imidazo[4,5-b]pyridine] | 1.48 | –
26 | c1ccc2cc(-c3ccnc4c3nc(-c3ccc5c(c3)OCCO5)n4C3CCNCC3)ccc2c1 [2-(2,3-dihydro-1,4-benzodioxin-6-yl)-7-(2-naphthyl)-3-piperidin-4-yl-3H-imidazo[4,5-b]pyridine] | 1.18 | –
27 | c1ccc2cc(-c3ccnc4c3nc(-c3ccc5ccccc5n3)n4C3CCNCC3)ccc2c1 [2-[7-(2-naphthyl)-3-piperidin-4-yl-3H-imidazo[4,5-b]pyridin-2-yl]quinoline] | 0.01 | 1.01
28 | FC(F)(F)Oc1ccccc1-c1nc2c(-c3ccc4ccccc4c3)ccnc2n1C1CCNCC1 [7-(2-naphthyl)-3-piperidin-4-yl-2-[2-(trifluoromethoxy)phenyl]-3H-imidazo[4,5-b]pyridine] | 1.88 | –
29 | Clc1ccccc1-c1nc2c(-c3ccc4ccccc4c3)ccnc2n1C1CCNCC1 [2-(2-chlorophenyl)-7-(2-naphthyl)-3-piperidin-4-yl-3H-imidazo[4,5-b]pyridine] | 1.36 | –
30 | c1ccc2cc(-c3ccnc4c3ncn4C3CNC3)ccc2c1 [3-azetidin-3-yl-7-(2-naphthyl)-3H-imidazo[4,5-b]pyridine] | 1.49 | 1.25
31 | Clc1cccc(-c2nc3cc(-c4ccc5ccccc5c4)cnc3n2C2CCNCC2)c1 [2-(3-chlorophenyl)-6-(2-naphthyl)-3-piperidin-4-yl-3H-imidazo[4,5-b]pyridine] | 0.98 | –
32 | Clc1cncc(Cl)c1-c1nc2c(-c3ccc4ccccc4c3)ccnc2n1C1CCNCC1 [2-(3,5-dichloropyridin-4-yl)-7-(2-naphthyl)-3-piperidin-4-yl-3H-imidazo[4,5-b]pyridine] | 1.95 | 0.29
33 | O=[N+]([O-])c1ccccc1-c1nc2cc(-c3ccc4ccccc4c3)cnc2n1C1CCNCC1 [6-(2-naphthyl)-2-(2-nitrophenyl)-3-piperidin-4-yl-3H-imidazo[4,5-b]pyridine] | 1.13 | –

From US20090069319A1, “IMIDAZOPYRIDINE ANALOGS AND THEIR USE AS AGONISTS OF THE WNT-BETA-CATENIN CELLULAR MESSAGING SYSTEM” (Wyeth, priority 2007, published 2009)
